Test results reported in paper PMC7663597, “Structure–Activity Relationship of Aloperine Derivatives as New Anti–Liver Fibrogenic Agents” (Molecules, 2020).

Key:
[1] = biological target: T1, luciferase (Photinus pyralis, UniProt P08659, K549A/L550V/N119G/N50D/S548I); assay: Acute effect on luciferase activity (cell lysate, 2 h); type: biochemical; conditions: 80 μM, 2-h treatment
T1 construct: expressed in transfected cells; host or cells: human hepatic stellate LX-2 cells transfected with pGL4.17-COL1A1P; lysate used
T1 sequence (P08659 whole entry N50D/N119G/S548I/K549A/L550V): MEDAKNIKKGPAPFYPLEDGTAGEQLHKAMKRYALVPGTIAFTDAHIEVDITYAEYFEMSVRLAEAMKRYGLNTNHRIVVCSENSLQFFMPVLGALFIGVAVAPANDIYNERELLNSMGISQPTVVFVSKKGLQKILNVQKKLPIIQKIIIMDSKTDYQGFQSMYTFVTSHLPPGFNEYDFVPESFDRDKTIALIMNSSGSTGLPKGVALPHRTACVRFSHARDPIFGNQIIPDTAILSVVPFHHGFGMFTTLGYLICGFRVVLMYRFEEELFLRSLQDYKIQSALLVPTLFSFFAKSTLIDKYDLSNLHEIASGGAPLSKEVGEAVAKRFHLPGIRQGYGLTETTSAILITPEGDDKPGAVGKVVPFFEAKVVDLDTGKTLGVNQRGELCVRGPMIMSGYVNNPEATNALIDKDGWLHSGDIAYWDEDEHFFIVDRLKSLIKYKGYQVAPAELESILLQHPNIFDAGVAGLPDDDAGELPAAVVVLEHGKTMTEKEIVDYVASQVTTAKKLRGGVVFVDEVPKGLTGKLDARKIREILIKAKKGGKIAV
Method: Then, their anti-COL1A1 potencies were verified by testing the half maximal inhibition concentration (IC50) values upon COL1A1 expression expression in LX-2 cells. […] Then, compounds 4i, 4n and 4p with the lower IC50 values were selected as the key compounds for further studies.
Cells were maintained on Dulbecco’s Modified Eagle’s medium (DMEM), laid on 96-well plate. DMEM medium was supplemented with 10% fetal bovine serum (FBS) at 37 °C humidified atmosphere with 5% CO2. Furthermore, serum-free culture was required until the cells were confluent at 90−95%. 24 h later the cells were treated with a tested compound (40 and 80 μM) for 24 h. The COL1A1 promotor activity was detected by the Bright-Glo luciferase assay system. Alternatively, to test the acute effects of compound on luciferase activity, 24 h later the cells were lysed and the lysate was treated with a tested compound (80 μM) for 2 h, then the luciferase was detected by the Bright-Glo luciferase assay system (Promega, Madison, WI, USA).

[2] = HepG2 cell survival, MTT assay; type: cell-based; conditions: human, HepG2 cells
Method: HepG2 cell survival was measured by MTT assay. HepG2 cells, at density of 6x10^3 cells/well in 96-well culture plates, were incubated with the aloperine derivates at various concentrations until the cells at 50% confluence for 24 h. 20 µL of the MTT (5 mg/mL) solution was added to each plate and incubated with 5% CO2, 37 °C for 4 h. Subsequently, withdrawing the culture supernatant containing MTT, 150 µL DMSO was used for dissolving the formazan crystal. The absorbance was measured using a microplate reader at 570 nm.

[3] = system: COL1A1 mRNA; assay: RT-PCR of COL1A1 mRNA in LX-2 cells; type: cell-based, human; conditions: 24 h
Method: (§1) In the absence or presence of TGF-β1 (2 ng/mL) treatment, LX-2 cells were treated with key compounds 4n and 4p at concentrations of 6 μM and 12 μM, or 4i at a concentration of 12 μM, respectively.
LX-2 cells were laid on 6-well plate and cultured in DMEM supplemented with 10% fetal bovine serum (FBS) in a 5% CO2 atmosphere at 37 °C. And serum-free culture was required until the cells reached 90−95% confluence. […] Total RNA of the LX-2 cells was isolated using TRIzol reagent, purified using NucleoSpin RNA Clean-up. Reverse transcription was performed with Transcriptor first strand cDNA synthesis kit. Subsequently, the cDNA levels was determined by ABI 7500 Fast Real-Time PCR System using TaqMan probes of COL1A1, TGF-β1, α-SMA, and GAPDH (sequence not disclosed by ABI) and FastStart Universal Probe master mix (Roche, Indianapolis, IN, USA).

[4] = system: TGFB1 mRNA; assay: RT-PCR of TGFB1 mRNA in LX-2 cells; type: cell-based, human; conditions: TGF-β1 (2 ng/mL) stimulation, 24 h
Method: as §1
Since the stimulation of TGF-β1 provokes the expression of a series of fibrosis genes, for example COL1A1 and TGFB1 [24, 25], the effects of key compounds on TGF-β1 expression were evaluated by RT-PCR and western blot assays. As shown in Figure 2B and Supplementary Table S1, the expression of TGFB1 mRNA was maintained at a low level, and the addition of a key compound seemed to have little effect on its expression.
LX-2 cells were laid on 6-well plate and cultured in DMEM supplemented with 10% fetal bovine serum (FBS) in a 5% CO2 atmosphere at 37 °C. And serum-free culture was required until the cells reached 90−95% confluence. After 24 h, cells were incubated with […] concentrations of aloperine derivatives in the presence of 2 ng/mL of TGF-β1 for 24 h. Total RNA of the LX-2 cells was isolated using TRIzol reagent, purified using NucleoSpin RNA Clean-up. Reverse transcription was performed with Transcriptor first strand cDNA synthesis kit. Subsequently, the cDNA levels was determined by ABI 7500 Fast Real-Time PCR System using TaqMan probes of COL1A1, TGF-β1, α-SMA, and GAPDH (sequence not disclosed by ABI) and FastStart Universal Probe master mix (Roche, Indianapolis, IN, USA).

[5] = system: TGF-β1 protein; assay: Western blot of TGF-β1 protein in LX-2 cells; type: cell-based, human; conditions: 24 h
Method: At the meantime, the addition of TGF-β1 also stimulated the expression of TGF-β1 on protein level, as shown in Figure 3A–C and Supplementary Table S2.
LX-2 cells were cultured as described above. Cells were washed with phosphate-buffered saline (PBS) and were resuspended by radioimmunoprecipitation assay (RIPA) lysis buffer for 30 min in 4 °C; the supernatant was collected after centrifugation at 12000 g for 15 min at 4 °C. Subsequently, equal amounts of protein were quantified with Bradford assay, separated using SDS-PAGE and transferred onto polyvinylidene difluoride membrane. The membranes were blocked with 5% milk in PBST for 1 h, and probed with specific primary antibodies overnight at room temperature. The membrane was washed three times by PBST, and probed with horseradish peroxidase-conjugated secondary antibodies and GAPDH. The proteins were visualized by chemiluminescence reagents. Antibodies used in western blot analysis were obtained from Abcam (Cambridge, UK): anti-collagen 1 (ab34710), anti-TGF beta 1 antibody (ab179695), anti-alpha smooth muscle actin (ab32575) and Cell Signaling Technology (Danvers, MA, USA): GAPDH (D16H11) Rabbit mAb (5174).

[6] = in vivo; conditions: both sexes, Kunming, mouse, po
Method: (§2) To evaluate the safety profiles of the key compounds 4i, 4n and 4p, an acute toxicity test was performed in Kunming mice. Compound 4i was given orally in a single-dosing experiment at 100, 300 and 400 mg kg^−1, while 4n at 300, 400, 500 mg kg^−1, and 4p at 200, 400, 500 mg kg^−1. The mice were closely monitored for 7 days.
(§3) Male and Female Kunming mice with weight of 20.0 ±1.0 g were obtained from the Institute of Laboratory Animal Science (Beijing, China). Animals wer e cared according to the institutional guidelines of the Institute of Medicinal Biotechnology, CAMS&PUMC (IMB-20190610D3), and fed with regular rodent chow and housed in an air conditioned room. The mice were randomly divided into different groups with four male mice and four female mice each. Each compound was given orally in a single-dosing experiment, the dose of 4i was 100, 300 and 400 mg kg^−1, the dose of 4n was 300, 400, 500 mg kg^−1, the dose of 4p was 200, 400, 500 mg kg^−1 (ddH2O as control). The mice were closely monitored for 7 days. Body weight as well as survival was monitored.

[7] = system: Kunming mice; assay: in vivo; conditions: both, mouse, po, 7 days
Method: as §2, §3

[8] = TGF-β1 (2 ng/mL) stimulation, 6 μM
[9] = TGF-β1 (2 ng/mL) stimulation, 12 μM

Structure (SMILES) | Acute effect on luciferase activity [1] | CC50 at 24 h [2] [µM] | Inhibitory rate of COL1A1 transcription (mRNA) [3, 8] [%] | Inhibitory rate of COL1A1 transcription (mRNA) [3, 9] [%] | Inhibitory rate of COL1A1 transcription (mRNA) ([3]; absence of TGF-β1, 6 μM) [%] | Inhibitory rate of COL1A1 transcription (mRNA) ([3]; absence of TGF-β1, 12 μM) [%] | Inhibitory rate of TGFB1 mRNA expression ([4]; 6 μM) [%] | Inhibitory rate of TGFB1 mRNA expression ([4]; 12 μM) [%] | Inhibition rate of TGF-β1 protein expression ([5]; with TGF-β1, 6 μM) [%] | Inhibition rate of TGF-β1 protein expression ([5]; with TGF-β1, 12 μM) [%] | LD50 at 7 days [6] [mg/kg] | median lethal dose (LD50) [7] [mg/kg]
O=C(CN1CCCC2=C[C@H]3C[C@H](CN4CCCC[C@H]34)[C@@H]21)N1c2ccccc2Oc2ccccc21 [4p, 12N-N′-Phenoxazinylcarbamoylmethyl aloperine] | minimal inhibition | 43.7 ± 2.7 | 99.5 | 102.9 | 38 | 42 | 60.8 | 63.8 | 20.8 | 135.4 | 400 | 400
O=C(CN1CCCC2=C[C@H]3C[C@H](CN4CCCC[C@H]34)[C@@H]21)N(c1ccccc1)c1ccc2ccccc2c1 [4n, 12N-(N’-(Naphthalen-2-yl)-N’-phenyl)carbamoylmethyl aloperine] | minimal inhibition | 35.2 ± 4.1 | 76.0 | 84.5 | 42 | 47 | 57.7 | 60.0 | 14.6 | 61.0 | 500 | 500
